# According to patent US20180333382A1, “PHARMACEUTICAL COMPOSITIONS COMPRISING DGLA AND USE OF SAME” (DS Biopharma Limited, priority 2017, published 2018):
# Read-outs that look alike come from different tables or passages of the source.
# Test: Phase one study part 2: multiple dose (28 days) plasma PK of free and total DGLA
# Assay type: in vivo, human
# Details: for Tmax / half-life: human, plasma, oral; for half-life: read-out: t1/2, median, free DGLA, baseline-corrected plasma (converted); for free DGLA Peak Trough Fluctuation (PTF), mean: steady state Day 28 (0-24 hours)
# Method: Multiple dose part two of the study comprised two cohorts (Cohorts five and six) of eight subjects each, who were administered multiple doses of study drug in the fasted state for 28 days. Subjects in Cohorts five and six received DS107G at 2000 or 4000 mg, respectively, or matching placebo once daily for 28 days. Cohort six was started after Cohort five's safety data were evaluated by the SMC. No interim analysis was planned. […]
# In Part two of the study (Cohorts five and six), subjects were administered study drug (500-mg DS107G capsules or matching placebo capsules) once daily in the fasted state for 28 days. Subjects in Cohort five received study drug first and, if they tolerated the 2000-mg daily dose for the first 14 days, subjects in Cohort six were started on the 4000-mg daily dose for 28 days.
# PK parameter was computed after correcting the dosed DGLA concentrations with baseline DGLA concentrations.
# [1] = 4000 mg once daily, Day 28, 0 to 24 hours
# [2] = 4000 mg once daily, Day 28, 0 to 168 hours
# [3] = 4000 mg once daily, Day 28: 0 to 24 hours
smiles,measurement,setting,value
"CCCCC/C=C\C/C=C\C/C=C\CCCCCCC(=O)O [DS107G, Dihomo gamma linolenic acid]","AUC0-24, mean, free DGLA, baseline-corrected plasma",[1],16155.2 ng·h/mL
same,"AUC0-24/Dose, mean, free DGLA, baseline-corrected plasma",[1],4.04 h/kL
same,"AUC0-24/Dose, mean, total DGLA, baseline-corrected plasma",[1],465.14 h/kL
same,"AUC0-inf, mean, free DGLA, baseline-corrected plasma",[1],22926.3 ng·h/mL
same,"AUC0-inf/Dose, mean, free DGLA, baseline-corrected plasma",[1],5.73 h/kL
same,"AUC0-inf/Dose, mean, total DGLA, baseline-corrected plasma",[1],1194.91 h/kL
same,"CL/F, mean, free DGLA, baseline-corrected plasma",[1],0.1865 kL/h
same,"Cmax, mean, free DGLA, baseline-corrected plasma",[1],2873.2 ng/mL
same,"Cmax/Dose, mean, free DGLA, baseline-corrected plasma",[1],0.718 kL⁻¹
same,"Cmax/Dose, mean, total DGLA, baseline-corrected plasma",[1],22.717 kL⁻¹
same,"λz, mean, free DGLA, baseline-corrected plasma",[1],0.0596 h⁻¹
same,"λz, mean, total DGLA, baseline-corrected plasma",[1],0.0471 h⁻¹
same,"AUC0-24, mean, free DGLA, baseline-corrected plasma",[2],16155.2 ng·h/mL
same,"AUC0-24/Dose, mean, free DGLA, baseline-corrected plasma",[2],4.04 h/kL
same,"AUC0-24/Dose, mean, total DGLA, baseline-corrected plasma",[2],465.14 h/kL
same,"AUC0-inf, mean, free DGLA, baseline-corrected plasma",[2],43184.3 ng·h/mL
same,"AUC0-inf/Dose, mean, free DGLA, baseline-corrected plasma",[2],10.80 h/kL
same,"AUC0-inf/Dose, mean, total DGLA, baseline-corrected plasma",[2],1575.98 h/kL
same,"CL/F, mean, free DGLA, baseline-corrected plasma",[2],0.1266 kL/h
same,"Cmax, mean, free DGLA, baseline-corrected plasma",[2],2873.2 ng/mL
same,"Cmax/Dose, mean, free DGLA, baseline-corrected plasma",[2],0.718 kL⁻¹
same,"Cmax/Dose, mean, total DGLA, baseline-corrected plasma",[2],22.717 kL⁻¹
same,"λz, mean, free DGLA, baseline-corrected plasma",[2],0.0404 h⁻¹
same,"λz, mean, total DGLA, baseline-corrected plasma",[2],0.0194 h⁻¹
same,"% PTF (peak trough fluctuation), mean, free DGLA, steady-state baseline-corrected plasma",[3],431.97%
same,"% PTF (peak trough fluctuation), mean, total DGLA, steady-state baseline-corrected plasma",[3],44.90%
same,"AR(AUC) accumulation ratio, mean, free DGLA, steady-state baseline-corrected plasma",[3],1.561
same,"AR(AUC) accumulation ratio, mean, total DGLA, steady-state baseline-corrected plasma",[3],4.163
same,"AR(Cmax) accumulation ratio, mean, free DGLA, steady-state baseline-corrected plasma",[3],1.385
same,"AR(Cmax) accumulation ratio, mean, total DGLA, steady-state baseline-corrected plasma",[3],3.440
same,"CLss/F, mean, free DGLA, steady-state baseline-corrected plasma",[3],0.2858 kL/h
same,"CLss/F, mean, total DGLA, steady-state baseline-corrected plasma",[3],0.0025 kL/h
same,"Cavg, mean, free DGLA, steady-state baseline-corrected plasma",[3],673.1 ng/mL
same,"Cavg, mean, total DGLA, steady-state baseline-corrected plasma",[3],77.5239 µg/mL
same,"Cmin, mean, free DGLA, steady-state baseline-corrected plasma",[3],147.0 ng/mL
same,"Cmin, mean, total DGLA, steady-state baseline-corrected plasma",[3],59.2167 µg/mL
same,"Vzss/F, mean, free DGLA, steady-state baseline-corrected plasma",[3],5.7563 kL
same,"Vzss/F, mean, total DGLA, steady-state baseline-corrected plasma",[3],0.1047 kL
same,"tmin, median, free DGLA, steady-state baseline-corrected plasma",[3],8.00 h
same,"tmin, median, total DGLA, steady-state baseline-corrected plasma",[3],2.00 h
same,"time to reach steady-state plasma concentrations, free and total DGLA",2000 and 4000 mg daily,~14 days
same,"free DGLA mean baseline-corrected AUC0-24, 4000 mg vs 2000 mg dose",Day 1,~2.5 fold
same,"free DGLA mean baseline-corrected Cmax, 4000 mg vs 2000 mg dose",Day 1,~3 fold
same,"total DGLA mean baseline-corrected AUC0-24, 4000 mg vs 2000 mg dose",Day 1,~1.5 fold
same,"total DGLA mean baseline-corrected Cmax, 4000 mg vs 2000 mg dose",Day 1,~1.5 fold
same,"free DGLA mean baseline-corrected AUC0-24, 4000 mg vs 2000 mg dose",Day 28,~1.7 fold
same,"free DGLA mean baseline-corrected Cmax, 4000 mg vs 2000 mg dose",Day 28,~1.4 fold
same,"total DGLA mean baseline-corrected AUC0-24, 4000 mg vs 2000 mg dose",Day 28,~1.4 fold
same,"total DGLA mean baseline-corrected Cmax, 4000 mg vs 2000 mg dose",Day 28,~1.2 fold
same,time of peak mean concentration of free DGLA after dosing,"Days 1 and 28, 2000 and 4000 mg daily",about 4 hours
same,Tmax,"both sexes, both dose cohorts, Day 1 and Day 28, read-out: free DGLA median tmax",4 to 5 h
same,half-life,"2000 mg, 2000 mg once daily, Day 1, 0 to 24 hours",283 min
same,Tmax,"2000 mg, 2000 mg once daily, Day 1, 0 to 24 hours, read-out: tmax, median, free DGLA, baseline-corrected plasma",4 h
same,half-life,"2000 mg, 2000 mg once daily, Day 28, 0 to 24 hours",842 min
same,Tmax,"2000 mg, 2000 mg once daily, Day 28, 0 to 24 hours, read-out: tmax, median, free DGLA, baseline-corrected plasma",4 h
same,half-life,"2000 mg, 2000 mg once daily, Day 28, 0 to 168 hours",3820 min
same,Tmax,"2000 mg, 2000 mg once daily, Day 28, 0 to 168 hours, read-out: tmax, median, free DGLA, baseline-corrected plasma",4 h
same,half-life,"4000 mg, 4000 mg once daily, Day 1, 0 to 24 hours",355 min
same,Tmax,"4000 mg, 4000 mg once daily, Day 1, 0 to 24 hours, read-out: tmax, median, free DGLA, baseline-corrected plasma",5 h
same,half-life,"4000 mg, 4000 mg once daily, Day 28, 0 to 24 hours",763 min
same,Tmax,"4000 mg, 4000 mg once daily, Day 28, 0 to 24 hours, read-out: tmax, median, free DGLA, baseline-corrected plasma",4 h
same,half-life,"4000 mg, 4000 mg once daily, Day 28, 0 to 168 hours",2890 min
same,Tmax,"4000 mg, 4000 mg once daily, Day 28, 0 to 168 hours, read-out: tmax, median, free DGLA, baseline-corrected plasma",4 h
same,"increase of average concentration at steady state when dose doubled from 2000 to 4000 mg daily, free DGLA",in vivo,1.6 fold
same,"increase of average concentration at steady state when dose doubled from 2000 to 4000 mg daily, total DGLA",in vivo,1.2 fold
same,"free DGLA Peak Trough Fluctuation (PTF), mean",first value of both dose cohorts (2000 mg),~430%
same,"free DGLA Peak Trough Fluctuation (PTF), mean",second value of both dose cohorts (4000 mg),~490%
